According to the supplement of paper PMC10307832:

What follows are cell lines tested with CCOC1=CC=CC=C1N=NC2=C(NN(C2=O)C3=NC(=CS3)C4=CC=CC=C4)C [BAM7] + CCNC(=O)c1noc(-c2cc(C(C)C)c(O)cc2O)c1-c1ccc(CN2CCOCC2)cc1 [Luminespib] (partner 0.01 µM) (assay: relative viability (nuclei count vs DMSO), 5 days (fraction); higher = more cells survive). Conditions: first compound 0.5 µM.
In short: (§1)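 Lung cancer cell lines were seeded in 1536-well plates and dosed by pin tool the next day, with either a single drug or a fixed anchor-drug dose combined with five library-drug doses (not always all listed) spaced in √10 steps. Five days later, one step fixed the cells and stained their nuclei (final 0.05% Triton X-100, 1% formaldehyde, 1 ug/ml Hoechst), and nuclei were counted on 4× images. Relative viability is the nuclei count in treated wells divided by the count in vehicle wells, and each value is the median of duplicate plates.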
NCI-H522 gave a relative viability of 1.2. For NCI-H1623, the relative viability was 0.491. In the case of NCI-H727, the relative viability was 0.215. For NCI-H1650, the relative viability was 0.171. NCI-H1993 showed a relative viability of 0.81. Work on SW 1573 yielded a relative viability of 0.356. With NCI-H838 the relative viability was 0.359. In the case of LCLC-103H, the relative viability was 0.837. Work on NCI-H520 yielded a relative viability of 0.207. In the case of NCI-H2126, the relative viability was 0.891. In the case of EMC-BAC-2, the relative viability was 1.13. NCI-H2085 showed a relative viability of 0.436. With NCI-H1666 the relative viability was 1. With NCI-H596 the relative viability was 0.848. In the case of LK-2, the relative viability was 0.221. NCI-H2087 gave a relative viability of 0.183. Work on NCI-H2342 yielded a relative viability of 0.691. Work on SK-MES-1 yielded a relative viability of 0.877. In the case of H3255, the relative viability was 0.801. Cell Line COR-L23 has a relative viability of 0.635. In the case of COR-L 105, the relative viability was 0.668. LOU-NH91 was tested, and the relative viability was 0.38. For ChaGo-K-1, the relative viability was 0.509. For NCI-H2170, the relative viability was 0.752. With NCI-H2405 the relative viability was 0.868. HOP-62 gave a relative viability of 0.89. With HCC-44 the relative viability was 1.38. SW 900 showed a relative viability of 0.19. For LU99A, the relative viability was 0.251. In the case of BEN, the relative viability was 0.444. For HARA, the relative viability was 0.678. With NCI-H322M the relative viability was 0.876. LCLC-97TM1 gave a relative viability of 0.848. In the case of NCI-H2009, the relative viability was 1.05. For A-427, the relative viability was 0.949. In the case of NCI-H1792, the relative viability was 0.501. NCI-H1563 gave a relative viability of 0.508.

Same assay, conditions: first compound 5 µM
NCI-H522 showed a relative viability of 1.2. Cell Line NCI-H1623 has a relative viability of 0.595. NCI-H1650 was tested, and the relative viability was 0.191. NCI-H1993 gave a relative viability of 0.869. With SW 1573 the relative viability was 0.168. NCI-H838 gave a relative viability of 0.292. In the case of LCLC-103H, the relative viability was 0.919. NCI-H520 was tested, and the relative viability was 0.236. Cell Line NCI-H2126 has a relative viability of 0.86. In the case of EMC-BAC-2, the relative viability was 1.28. With NCI-H2085 the relative viability was 0.376. NCI-H1666 showed a relative viability of 0.953. With NCI-H596 the relative viability was 0.956. LK-2 showed a relative viability of 0.172. Work on NCI-H2087 yielded a relative viability of 0.216. Cell Line NCI-H2342 has a relative viability of 0.726. SK-MES-1 was tested, and the relative viability was 0.805. For H3255, the relative viability was 1.12. In the case of COR-L23, the relative viability was 0.661. COR-L 105 gave a relative viability of 0.892. For LOU-NH91, the relative viability was 0.336. ChaGo-K-1 gave a relative viability of 0.573. Cell Line NCI-H2170 has a relative viability of 0.686. NCI-H2405 was tested, and the relative viability was 0.77. For HOP-62, the relative viability was 0.987. With HCC-44 the relative viability was 1.07. SW 900 showed a relative viability of 0.208. LU99A showed a relative viability of 0.316. BEN was tested, and the relative viability was 0.494. In the case of HARA, the relative viability was 0.868. For NCI-H322M, the relative viability was 0.966. With LCLC-97TM1 the relative viability was 0.803. Work on NCI-H2009 yielded a relative viability of 1.06. A-427 gave a relative viability of 0.715. For NCI-H1792, the relative viability was 0.46. In the case of NCI-H1563, the relative viability was 0.518.

Same assay, conditions: first compound 15.81 µM
NCI-H522 gave a relative viability of 1.11. NCI-H1623 gave a relative viability of 0.526. In the case of NCI-H727, the relative viability was 0.345. For NCI-H1650, the relative viability was 0.19. NCI-H1993 gave a relative viability of 0.744. Cell Line SW 1573 has a relative viability of 0.417. Cell Line NCI-H838 has a relative viability of 0.346. Work on LCLC-103H yielded a relative viability of 0.946. In the case of NCI-H520, the relative viability was 0.243. NCI-H2126 showed a relative viability of 0.76. Cell Line EMC-BAC-2 has a relative viability of 1.12. Cell Line NCI-H2085 has a relative viability of 0.503. Work on NCI-H1666 yielded a relative viability of 1.03. Cell Line NCI-H596 has a relative viability of 0.951. Work on LK-2 yielded a relative viability of 0.228. Cell Line NCI-H2087 has a relative viability of 0.18. Cell Line NCI-H2342 has a relative viability of 0.768. SK-MES-1 was tested, and the relative viability was 0.621. In the case of H3255, the relative viability was 0.787. Cell Line COR-L23 has a relative viability of 0.601. In the case of COR-L 105, the relative viability was 0.706. For LOU-NH91, the relative viability was 0.332. Work on ChaGo-K-1 yielded a relative viability of 0.58. NCI-H2170 showed a relative viability of 0.544. NCI-H2405 showed a relative viability of 0.824. Cell Line HOP-62 has a relative viability of 0.911. HCC-44 was tested, and the relative viability was 1.03. For SW 900, the relative viability was 0.158. In the case of LU99A, the relative viability was 0.207. BEN gave a relative viability of 0.382. In the case of HARA, the relative viability was 0.682. NCI-H322M was tested, and the relative viability was 0.903. For LCLC-97TM1, the relative viability was 0.825. Cell Line NCI-H2009 has a relative viability of 1.04. For A-427, the relative viability was 0.886. With NCI-H1792 the relative viability was 0.421. With NCI-H1563 the relative viability was 0.562.

Same assay, conditions: first compound 50 µM
Cell Line NCI-H522 has a relative viability of 0.993. Work on NCI-H1623 yielded a relative viability of 0.6. NCI-H727 was tested, and the relative viability was 0.33. With NCI-H1650 the relative viability was 0.2. Work on NCI-H1993 yielded a relative viability of 0.702. In the case of SW 1573, the relative viability was 0.229. NCI-H838 gave a relative viability of 0.328. For LCLC-103H, the relative viability was 0.979. For NCI-H520, the relative viability was 0.222. Work on NCI-H2126 yielded a relative viability of 0.954. Cell Line EMC-BAC-2 has a relative viability of 1.15. NCI-H2085 showed a relative viability of 0.372. With NCI-H1666 the relative viability was 1.03. For NCI-H596, the relative viability was 1.18. LK-2 was tested, and the relative viability was 0.191. For NCI-H2087, the relative viability was 0.172. For NCI-H2342, the relative viability was 0.735. SK-MES-1 gave a relative viability of 0.798. With H3255 the relative viability was 1.03. COR-L23 gave a relative viability of 0.647. Cell Line COR-L 105 has a relative viability of 0.734. LOU-NH91 gave a relative viability of 0.347. ChaGo-K-1 was tested, and the relative viability was 0.613. For NCI-H2170, the relative viability was 0.624. NCI-H2405 was tested, and the relative viability was 0.68. Cell Line HOP-62 has a relative viability of 0.844. In the case of HCC-44, the relative viability was 0.957. In the case of SW 900, the relative viability was 0.185. LU99A showed a relative viability of 0.247. For BEN, the relative viability was 0.272. HARA showed a relative viability of 0.66. NCI-H322M gave a relative viability of 0.93. Work on LCLC-97TM1 yielded a relative viability of 1.01. Cell Line NCI-H2009 has a relative viability of 0.979. A-427 gave a relative viability of 1.03. In the case of NCI-H1792, the relative viability was 0.509. Cell Line NCI-H1563 has a relative viability of 0.564.

The cell lines below were run with CCOC1=CC=CC=C1N=NC2=C(NN(C2=O)C3=NC(=CS3)C4=CC=CC=C4)C [BAM7] + O=C(CCCCCCC(=O)Nc1ccccc1)NO [Vorinostat] (partner 1 µM) in the same assay as above. Conditions: first compound 0.5 µM.
In short: as §1
For NCI-H522, the relative viability was 0.911. Cell Line NCI-H727 has a relative viability of 1.42. Work on NCI-H1650 yielded a relative viability of 0.605. NCI-H1993 showed a relative viability of 0.723. SW 1573 gave a relative viability of 0.715. NCI-H838 showed a relative viability of 0.741. In the case of LCLC-103H, the relative viability was 0.781. NCI-H520 showed a relative viability of 0.801. With NCI-H2126 the relative viability was 0.719. Work on EMC-BAC-2 yielded a relative viability of 0.478. NCI-H2085 gave a relative viability of 0.824.
